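All cell lines were grown in 96-well plates and treated with compound for 48 hours. GI50 marks 50% less growth. Definition used: TGI = concentration required for complete inhibition of growth.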
Experiments:
Experiment in all cases: growth of human tumour cells (NCI), 48 h
CAKI-1 renal = system: CAKI-1 renal
HT29 colon = system: HT29 colon
IGROV1 ovarian = system: IGROV1 ovarian
KM12 colon = system: KM12 colon
MDA-N = system: MDA-N
MOLT-4 leukemia = system: MOLT-4 leukemia
NCI-H23 lung = system: NCI-H23 lung
OVCAR-4 ovarian = system: OVCAR-4 ovarian
RPMI-8226 leukemia = system: RPMI-8226 leukemia
SF-295 CNS = system: SF-295 CNS
SF-539 CNS = system: SF-539 CNS
SK-MEL-28 melanoma = system: SK-MEL-28 melanoma
SK-OV-3 ovarian = system: SK-OV-3 ovarian
U251 CNS = system: U251 CNS
A498 renal = system: A498 renal

Compound	TGI (CAKI-1 renal) [µM]	TGI (HT29 colon) [µM]	TGI (IGROV1 ovarian) [µM]	TGI (KM12 colon) [µM]	TGI (MDA-N) [µM]	TGI (MOLT-4 leukemia) [µM]	TGI (NCI-H23 lung) [µM]	TGI (OVCAR-4 ovarian) [µM]	TGI (RPMI-8226 leukemia) [µM]	TGI (SF-295 CNS) [µM]	TGI (SF-539 CNS) [µM]	TGI (SK-MEL-28 melanoma) [µM]	TGI (SK-OV-3 ovarian) [µM]	TGI (U251 CNS) [µM]	TGI (A498 renal) [µM]	GI50 (HT29 colon) [µM]	GI50 (IGROV1 ovarian) [µM]	GI50 (OVCAR-4 ovarian) [µM]	GI50 (SF-295 CNS) [µM]	GI50 (SK-MEL-28 melanoma) [µM]
COc1cccc(/N=N/C(=NNC(=O)c2ccc(C)cc2)c2ccc(N(C)C)cc2)c1	> 100	> 100	> 100	> 100	> 100	> 100	> 100	> 100	> 100	> 100	> 100	> 100	> 100	> 100	–	–	–	–	–	–
O=[N+]([O-])c1ccc(C(O)(C#CCN2CCCC2)c2ccccc2)cc1 (configuration not stated)	–	34	> 100	> 100	> 100	64.4	> 100	> 100	61.9	> 100	> 100	34	> 100	> 100	76.6	–	–	–	–	–
CC(=O)O[C@H]1CC[C@@]2(C)C(=CC[C@@H]3[C@@H]2CC[C@]2(C)c4nc(Cl)ccc4C[C@@H]32)C1	> 100	> 100	> 100	> 100	> 100	> 100	19.4	> 100	–	83.3	–	> 100	> 100	> 100	> 100	–	–	–	–	–
CSc1c(C#N)c(N)n(-c2ccc(Cl)cc2)c(=O)c1C#N	> 100	> 100	> 100	> 100	> 100	> 100	> 100	> 100	> 100	–	> 100	> 100	> 100	> 100	> 100	–	–	–	–	–
COc1cc(O)c2c(=O)c(OC)c(-c3ccc(OC)c(OC)c3)oc2c1	57.1	> 100	> 100	–	> 100	–	–	> 100	> 100	> 100	–	51.6	> 100	> 100	> 100	> 100	> 100	61.8	> 100	18
O=c1[nH]c(Nc2nc3ccccc3[nH]2)nc(O)c1Cc1ccccc1	> 100	> 100	> 100	> 100	> 100	> 100	> 100	> 100	> 100	–	> 100	> 100	–	> 100	> 100	–	–	–	–	–
O=c1[nH]c2nc3ccccc3c(=O)n2/c1=C/c1ccco1	> 100	> 100	> 100	> 100	> 100	> 100	> 100	> 100	> 100	> 100	> 100	> 100	> 100	> 100	–	–	–	–	–	–
c1ccc(CC2COC(c3cccs3)=N2)cc1 (configuration not stated)	> 100	> 100	> 100	> 100	> 100	> 100	> 100	> 100	> 100	> 100	> 100	> 100	> 100	> 100	–	–	–	–	–	–
COc1cccc(C(=O)C#Cc2cnc(OC)nc2OC)c1	4.39	2.67	2.12	18.7	3	0.7	5.5	6.61	6.43	31.7	–	4.22	44.9	7.27	22.1	–	–	–	–	–
COc1cc(Nc2nc3cc(C(F)(F)F)ccc3n3cccc23)cc(OC)c1OC	> 100	–	> 100	–	> 100	> 100	> 100	–	> 100	> 100	> 100	> 100	> 100	> 100	> 100	–	–	–	–	–
Nc1ccc(Nc2cc(=O)[nH]c(=O)[nH]2)cc1Cl	> 100	> 100	–	–	> 100	> 100	> 100	> 100	> 100	> 100	> 100	> 100	> 100	> 100	> 100	–	–	–	–	–
COC(=O)Cc1c(-c2c(CC(=O)OC)c3ccccc3n2C2OC(COC(C)=O)C(OC(C)=O)C(OC(C)=O)C2OC(C)=O)[nH]c2ccccc12 (configuration not stated)	> 100	> 100	> 100	> 100	> 100	> 100	> 100	> 100	> 100	> 100	–	> 100	> 100	> 100	> 100	–	–	–	–	–
CCC1C(c2ccccc2O)c2cc3c(cc2OC1N1CCOCC1)OCO3 (configuration not stated)	34.1	26.4	32.3	27.7	28.6	27	34.5	–	43.8	28.6	30.7	33.9	39.6	26.4	27.5	–	–	–	–	–
CC[C@@]1(O)C(=O)OCc2c1cc1n(c2=O)Cc2c-1nc1ccccc1c2/C=N\NC(=O)C(N)CCSC (some centres not stated)	–	–	5.63	–	> 100	–	0.0526	3.24	4.03	0.315	–	> 100	7.73	1.17	0.359	–	–	–	–	–
O=C(O)c1ccccc1N=Nc1c(O)c(S(=O)(=O)O)cc2cc(S(=O)(=O)O)ccc12	> 100	> 100	> 100	> 100	> 100	> 100	> 100	–	> 100	> 100	> 100	> 100	> 100	> 100	> 100	–	–	–	–	–
CC1CC(C#N)=C2NCCN2C1=O (configuration not stated)	> 100	> 100	> 100	> 100	31.8	> 100	> 100	> 100	> 100	> 100	> 100	> 100	> 100	> 100	–	–	–	–	–	–

— PubChem BioAssay (NCI)
